Experiment [1] has as its target IniA (Mycolicibacterium smegmatis, UniProt I7FE16, K73A). As to the kind of experiment: isothermal titration calorimetry. The class given is binding. The text has this:
isothermal titration calorimetry on IniA | showing only a twofold reduction in affinity for GMPPNP or GTP | the mutant IniA largely maintained interactions with GDP
For orientation: Isothermal titration calorimetry measures the heat released or taken up as one component is titrated into another.

The target of experiment [2] is IniA (Mycolicibacterium smegmatis, UniProt I7FE16). Put plainly: isothermal titration calorimetry. The class given is binding.
Sequence of IniA (Mycolicibacterium smegmatis, UniProt I7FE16) (I7FE16 entry or part of it): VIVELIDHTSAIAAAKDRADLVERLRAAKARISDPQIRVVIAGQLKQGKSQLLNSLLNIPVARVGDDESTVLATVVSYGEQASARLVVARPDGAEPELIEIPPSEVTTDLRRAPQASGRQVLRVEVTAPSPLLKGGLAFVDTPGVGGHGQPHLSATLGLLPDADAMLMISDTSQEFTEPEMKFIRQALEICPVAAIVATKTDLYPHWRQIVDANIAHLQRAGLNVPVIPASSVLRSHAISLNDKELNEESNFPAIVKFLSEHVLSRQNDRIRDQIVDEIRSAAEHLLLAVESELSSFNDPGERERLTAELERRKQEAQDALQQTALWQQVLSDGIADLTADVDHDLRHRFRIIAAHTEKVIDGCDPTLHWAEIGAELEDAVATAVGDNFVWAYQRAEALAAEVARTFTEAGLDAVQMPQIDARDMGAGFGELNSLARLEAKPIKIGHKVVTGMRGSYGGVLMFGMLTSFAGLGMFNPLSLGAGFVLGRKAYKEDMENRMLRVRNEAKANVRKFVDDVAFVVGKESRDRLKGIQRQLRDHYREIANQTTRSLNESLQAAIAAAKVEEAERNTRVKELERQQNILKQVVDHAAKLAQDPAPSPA

As usually defined, the Kd is the concentration at which binding is half-saturated.

Sequence of IniA (Mycolicibacterium smegmatis, UniProt I7FE16, K73A) (I7FE16 entry or part of it K73A): as the sequence (I7FE16 entry or part of it) above

In the case of `Nc1nc2c(ncn2[C@@H]2O[C@H](COP(=O)(O)OP(=O)(O)O)[C@@H](O)[C@H]2O)c(=O)[nH]1` [GDP], the Kd at IniA [1] was approximately 1060 nM; on IniA [2], 750 nM.
For `Nc1nc2c(ncn2[C@@H]2O[C@H](COP(=O)(O)OP(=O)(O)NP(=O)(O)O)[C@@H](O)[C@H]2O)c(=O)[nH]1` [GMPPNP] the same measures were approximately 23200 nM and 9010 nM.
For `Nc1nc2c(ncn2[C@@H]2O[C@H](COP(=O)(O)OP(=O)(O)OP(=O)(O)O)[C@@H](O)[C@H]2O)c(=O)[nH]1` [GTP], the Kd was approximately 1430 nM on IniA [1] and 740 nM on IniA [2].
